Patent US6558900B2, “Regulation of apoptosis and in vitro model for studies thereof” (Emory University, priority 1996, dated 2003)
“Also recorded” adds a separate entry of the source. Where a name gives a salt, the structure may show the parent alone.

Experiments:
variety of cell types = conditions: cited from earlier work
CPP32 [1] = assay: Apaf-2 activity: recombining with phosphocellulose flow through fraction (Apaf-1) and 35S-labeled CPP32; assay type: biochemical, human; conditions: 0.2 μg protein with phosphocellulose flowthrough fraction, 1 mM dATP
Experimental: FIG. 3 illustrates fractionation and reconstitution of dATP-dependent activation of CPP32 by phosphocellulose chromatography. HeLa cell S-100 was subjected to phosphocellulose chromatography and the column flow through and bound material were collected as described in the Examples. Aliquots (10 μl) of HeLa S-100 (50 μg) (lanes 1 and 2), phosphocellulose flow through fraction (PC-FT) (lanes 3 and 4), phosphocellulose bound fraction (PC-B) (lanes 5 and 6), and the mixture of phosphocellulose flow through and bound material (lanes 7 and 8) were incubated with aliquots of 3 μl in vitro translated, ^35S-labeled CPP32 at 30° C. for 1 hr in the absence (lanes 1,3,5,7) or presence (lanes 2,4,6,8) of 1 mM dATP. The samples were subjected to SDS-PAGE, transferred to a nitrocellulose filter, and the filter was exposed to film for 16 hours at room temperature.
The Apaf-2 activity that bound to the phosphocellulose column was purified through the Mono S column as described in Example 7. […] In FIG. 4B, aliquots (30 μl) of the Mono-S fractions were subjected to 15% SDS-PAGE and the proteins were visualized by silver staining.
Aliquots of 0.2 μg of Apaf-2 purified through the Mono S column (lanes 1, 2), cytochrome c from bovine heart (lanes 3, 4), and rat liver (lanes 5, 6) were incubated with aliquots of 10 μl phosphocellulose flowthrough fraction and 3 μl in vitro translated, 35S-labeled CPP32 at 30° C. for 1 hr in a final volume of 20 μl buffer A in the absence (lanes 1,3,5) or presence of (lanes 2, 4, 6) 1 mM dATP. Samples were subjected to SDS-PAGE and transferred to a nitrocellulose filter which was then exposed to a film for 16 hr at room temperature.
To isolate the protein(s) required for the activation of CPP32, HeLa S-100 was loaded onto a phosphocellulose column, and the flow-through and bound fractions were collected. […] When the flowthrough and bound fractions were mixed, CPP32-activating activity was restored (lanes 7-8). […] The factor(s) that flow through the phosphocellulose column are designated apoptotic protease activating factor-1 (Apaf-1) and the factor that bound to the column is designated apoptotic protease activating factor-2 (Apaf-2). It is understood that “Apaf-1” may represent more than one protein or it may represent a combination of protein(s) and other factors.
Apaf-2 activity was assayed by recombining with Apaf-1 after purification by the following steps. First, the Apaf-2 fraction was subjected to 50% ammonium sulfate precipitation. All of the activity remained in the supernatant while most of the protein precipitated (Table I). The supernatant was loaded onto a phenyl-sepharose (hydrophobic interaction) column and the activity was eluted with 1 M ammonium sulfate. The eluate was passed through a gel filtration column; active fractions were subjected to sequential Mono Q (anion exchange) and Mono S (cation exchange) chromatography. The Apaf-2 activity flowed through the Mono Q column, and the flow through was directly loaded onto the Mono S column. Bound Apaf-2 activity was then eluted with a 100-300 mM NaCl linear salt gradient. The fractions from the Mono S column were collected and assayed. […] The active fractions were analyzed by SDS-PAGE (FIG. 4B). A protein of apparent molecular mass of 15 kDa was co-eluted with the activity. No other proteins were detected by silver staining in the active Apaf-2 fractions.
CPP32 was translated and purified as described above. […]

hamster liver nuclei = assay: Reconstitution of DNA fragmentation and nuclear morphological change in HeLa S-100 immunodepleted of cytochrome c; assay type: biochemical; conditions: 1 μg added to immunodepleted HeLa S-100, 1 mM dATP
Experimental: (§1) Cytochrome c present in the HeLa cell S-100 was immunodepleted as described in the Example 10. In FIG. 7A, 10 μl aliquots of HeLa S-100 (50 μg) (lanes 1 and 2), or 10 μl aliquots of HeLa S-100 immunodepleted of cytochrome c (lanes 3 and 4), or 10 μl of HeLa S-100 immunodepleted of cytochrome c supplemented with 0.2 μg Apaf-2 purified through the Mono S column (H) (lanes 5 and 6), bovine heart cytochrome c (B) (lanes 7 and 8), or rat liver cytochrome c (R) (lanes 9 and 10), were incubated with aliquots of 3 μl in vitro translated, ^35S-labeled CPP32 in the absence (lanes 1, 3, 5, 7, 9) or presence (lanes 2, 4, 6, 8, 10) of 1 mM dATP at 30° C. for 1 hr in a final reaction volume of 20 μl of buffer A. Samples were subjected to SDS-PAGE and transferred to a nitrocellulose filter which were then exposed to film for 16 hr at room temperature. In FIG. 7B, HeLa S-100 (50 μg) immunodepleted of cytochrome c were reconstituted with the indicated amount of Apaf-2 (purified through Mono S column step) in a CPP32 cleavage reaction as described in FIG. 7A. The cleaved products (p20) were quantified in a Fuji-1000 phosphorimager machine and plotted in comparison with that generated by HeLa S-100. In FIG. 7C, aliquots of 50 μl of HeLa S-100 (250 μg) (lanes 1 and 2), or 50 μl of HeLa S-100 immunodepleted of cytochrome c (lanes 3 and 4), or 50 μl of HeLa S-100 immunodepleted of cytochrome c supplemented with 1 μg apaf-2 purified through the Mono S column (H) (lanes 5 and 6), bovine heart cytochrome c (B) (lanes 7 and 8), or rat liver cytochrome c (R) (lanes 9 and 10), were incubated with aliquots of 6 μl hamster liver nuclei in the absence (lanes 1, 3, 5, 7, 9) or presence (lanes 2, 4, 6, 8, 10) of 1 mM dATP at 37° C. for 2 hr in a final reaction volume of 60 μl. The DNA were isolated as described in the Examples, analyzed on 2% agarose gel electrophoresis, and the DNA was visualized by ethidium bromide staining. In FIG. 7D, DNA fragmentation assays were carried out as in FIG. 7C using HeLa S-100 immunodepleted of cytochrome c alone (a,b) or supplemented with Apaf-2 purified through Mono S column step (c,d) in the absence (a,c) or presence of 1 mM dATP (b,d). After 2 hr incubation at 37° C., an aliquot of each reaction (30 μl) was stained with 4′,6′-diamidino-2-phenylindole (DAPI), and observed under a fluorescence microscope with a UV-2A combination filter.
To rule out the possibility that the Apaf-2 activity is due to a minor contaminating protein that co-purified with cytochrome c, an immunodepletion experiment was carried out using a monoclonal antibody against rat cytochrome c. This monoclonal antibody cross-reacts with purified Apaf-2. […]

CPP32 [2] = assay: Reconstitution of dATP-dependent CPP32 activation in HeLa S-100 immunodepleted of cytochrome c; assay type: biochemical, human; conditions: 0.2 μg added to immunodepleted HeLa S-100, 1 mM dATP
Experimental: as §1
To rule out the possibility that the Apaf-2 activity is due to a minor contaminating protein that co-purified with cytochrome c, an immunodepletion experiment was carried out using a monoclonal antibody against rat cytochrome c. This monoclonal antibody cross-reacts with purified Apaf-2. As shown in FIGS. 7A-7D, HeLa cell S-100 depleted of cytochrome c using the monoclonal anti-cytochrome c antibody lost the dATP-dependent activation of CPP32 and the ability to induce DNA fragmentation in the added nuclei (FIGS. 7A and 7C, lanes 3 and 4). Adding back either the purified Apaf-2 from HeLa cells or the commercial cytochrome c from bovine heart or rat liver to the immunodepleted extracts restored the dATP-dependent activation of CPP32 and DNA fragmentation (FIGS. 7A and 7C, lanes 5-10). The reconstitution of cytochrome c dependent-activation of CPP32 was evident with the addition of 0.01 μg (33 nM) of purified cytochrome c to the cytochrome c-depleted extracts (FIG. 7B).
CPP32 was translated and purified as described above. Aliquot of 3 μl of the in vitro translated CPP32 was incubated with the indicated protein fraction, nucleotides, and 1 mM additional MgCl2 at 30° C. for 1 hour in a final volume of 20 μl of buffer A. At the end of the incubation, 7 μl of 4×SDS sample buffer was added to each reaction. After boiling for 3 min, each sample was subjected to a 15% SDS-polyacrylamide gel electrophoresis (SDS-PAGE). The gel was transferred to a nitrocellulose filter which was subsequently exposed to a Kodak X-OMAT AR X-ray film (Eastman Kodak, Rochester, N.Y.) for 16 hr at room temperature. […]

Compound | initiation of apoptosis (variety of cell types) | Apaf-2 activity (dATP-dependent activation of CPP32) (CPP32 [1]) | restoration of DNA fragmentation (hamster liver nuclei) | restoration of dATP-dependent activation of CPP32 (CPP32 [2])
O=C1c2c(O)ccc(O)c2C(=O)c2c(NCCNCCO)ccc(NCCNCCO)c21 [mitoxantrone HCl] | act to initiate apoptosis | – | – | –
rat liver cytochrome c: commercial cytochrome c from rat liver (Sigma) | – | have Apaf-2 activity; also recorded: initiated dATP-dependent activation of CPP32 as efficiently as Apaf-2 | restored | restored
COc1cc([C@@H]2c3cc4c(cc3[C@@H](O[C@@H]3O[C@@H]5CO[C@@H](C)O[C@H]5[C@H](O)[C@H]3O)[C@H]3COC(=O)[C@H]23)OCO4)cc(OC)c1O [etoposide] | act to initiate apoptosis | – | – | –
bovine heart cytochrome c: commercial cytochrome c from bovine heart (Sigma) | – | have Apaf-2 activity; also recorded: initiated dATP-dependent activation of CPP32 as efficiently as Apaf-2 | restored | restored
